The target of assay [1] is Cyclin-dependent kinase 4/cyclin D1 (Homo sapiens, UniProt P11802). Put plainly: Inhibitory concentration against Cyclin dependant kinase 4-cyclinD1. Type of assay: protein-complex assay.
The target of assay [2] is Cyclin-dependent kinase 2/cyclin E (Homo sapiens, UniProt P24941). Put plainly: Inhibitory concentration against Cyclin dependant kinase 2-cyclinE. The assay is classed as protein-complex assay.
A further assay has as its system HCT-116. Put plainly: Inhibitory concentration against human colon cancer HCT116 cell line. The assay is classed as functional, cell-based.

Sequence of Cyclin-dependent kinase 4/cyclin D1 (P11802 whole entry): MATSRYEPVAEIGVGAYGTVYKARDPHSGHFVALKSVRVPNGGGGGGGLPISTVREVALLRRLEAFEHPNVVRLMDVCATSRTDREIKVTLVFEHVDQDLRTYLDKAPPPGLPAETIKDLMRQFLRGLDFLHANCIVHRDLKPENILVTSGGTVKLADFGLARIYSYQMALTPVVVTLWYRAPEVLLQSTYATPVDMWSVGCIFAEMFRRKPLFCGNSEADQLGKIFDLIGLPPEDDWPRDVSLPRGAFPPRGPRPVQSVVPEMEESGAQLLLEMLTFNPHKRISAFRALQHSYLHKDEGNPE
Sequence of Cyclin-dependent kinase 4/cyclin D1 (P24385 whole entry, further chain): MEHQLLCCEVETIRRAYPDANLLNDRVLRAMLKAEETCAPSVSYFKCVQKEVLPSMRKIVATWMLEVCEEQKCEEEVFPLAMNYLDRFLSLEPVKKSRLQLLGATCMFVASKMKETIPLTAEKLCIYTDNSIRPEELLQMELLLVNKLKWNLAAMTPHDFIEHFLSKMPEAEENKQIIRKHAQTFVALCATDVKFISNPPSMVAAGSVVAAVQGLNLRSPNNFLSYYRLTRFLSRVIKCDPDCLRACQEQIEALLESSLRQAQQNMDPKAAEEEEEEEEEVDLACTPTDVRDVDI

The IC50 is the concentration at which inhibition is half-maximal. A low value points to inhibition by little substance. As for `COc1ccc(-c2[nH]nc3c2C(=O)c2c(NC(=O)NNC(=O)c4cccc([N+](=O)[O-])c4)cccc2-3)cc1`, the results for the IC50 in assay [1] and in assay [2] were 10 nM and 20 nM, respectively.
In the case of `COc1ccc(-c2[nH]nc3c2C(=O)c2c(NC(=O)NNC(=O)Nc4ccccc4)cccc2-3)cc1`, the IC50 was found to be 10 nM in assay [2] and 280 nM with HCT-116.
For the compound `COc1ccc(-c2[nH]nc3c2C(=O)c2c(NC(=O)NNC(=O)c4cc(N)cc(N)c4)cccc2-3)cc1`, the IC50 in assay [1] worked out at 10 nM; in assay [2], 30 nM.
In the case of `COc1ccc(-c2[nH]nc3c2C(=O)c2c(NC(=O)NNC(=O)c4ccccc4O)cccc2-3)cc1`, the IC50 in assay [1] came to 60 nM; in assay [2], 9 nM; in the assay with HCT-116, 80 nM.
Consider `COc1ccc(-c2[nH]nc3c2C(=O)c2c(NC(=O)NNC(=O)C(C)C)cccc2-3)cc1`, for which the IC50 in assay [1] is 6.5 nM; in assay [2], 10 nM.
Consider `COc1ccc(-c2[nH]nc3c2C(=O)c2c(NC(=O)NNC(=O)c4ccc(O)cc4O)cccc2-3)cc1`, for which the IC50 was 10 nM in assay [1], 10 nM in assay [2] and 250 nM in the assay with HCT-116.
With `COc1ccc(-c2[nH]nc3c2C(=O)c2c(NC(=O)NNC(=O)c4ccc5ccccc5c4)cccc2-3)cc1`, the IC50 worked out at 10 nM in assay [1], 30 nM in assay [2] and 120 nM in the assay with HCT-116.
On to `COc1ccc(-c2[nH]nc3c2C(=O)c2c(NC(=O)NNC(=O)c4ccccc4OC)cccc2-3)cc1`, for which the half-maximal inhibitory concentration (IC50) in assay [2] stood at 10 nM; in the assay with HCT-116, 40 nM.
For the compound `COc1ccc(-c2[nH]nc3c2C(=O)c2c(NC(=O)NNC(=O)c4cccc(C)c4)cccc2-3)cc1`, the IC50 in assay [1] amounted to 7 nM; in assay [2], 10 nM.
The like results for `COc1ccc(C(=O)NNC(=O)Nc2cccc3c2C(=O)c2c(-c4ccc(OC)cc4)n[nH]c2-3)cc1` were, in that order, 10 nM and 10 nM.
For `COc1ccc(-c2[nH]nc3c2C(=O)c2c(NC(=O)NNC(=O)c4ccc(C)cc4)cccc2-3)cc1`, the results for the IC50 (in assay [2]; in the assay on HCT-116) were 20 nM and 140 nM, respectively.
With `COc1ccc(-c2[nH]nc3c2C(=O)c2c(NC(=O)NNC(N)=O)cccc2-3)cc1`, the IC50 in assay [2] stood at 130 nM.
`COc1ccc(-c2[nH]nc3c2C(=O)c2c(NC(=O)NNC(=O)Cc4ccccc4)cccc2-3)cc1`: the results for the half-inhibitory concentration (IC50) in assay [1] and in assay [2] were 20 nM and 30 nM, respectively.
Consider `COc1ccc(-c2[nH]nc3c2C(=O)c2c(NC(=O)NNC(=O)c4ccc(N)cc4)cccc2-3)cc1`, for which the IC50 was 10 nM in assay [1], 10 nM in assay [2] and 70 nM in the assay with HCT-116.
On to `COc1ccc(-c2[nH]nc3c2C(=O)c2c(NC(=O)NNC(=O)c4ccncc4)cccc2-3)cc1`, for which the IC50 in assay [1] came out at 9 nM; in assay [2], 10 nM; with HCT-116, 190 nM.
For the compound `COc1ccc(-c2[nH]nc3c2C(=O)c2c(NC=O)cccc2-3)cc1`, the IC50 in assay [1] was 400 nM; in assay [2] it was 240 nM.
As for `COc1ccc(-c2[nH]nc3c2C(=O)c2c(NC(=O)NNC(=O)c4cccc(N)c4)cccc2-3)cc1`, the IC50 in assay [1] was determined as 7 nM; in assay [2], 10 nM; with HCT-116 it was 80 nM.
On to `COc1ccc(-c2[nH]nc3c2C(=O)c2c(NC(=O)NNC(C)=O)cccc2-3)cc1`, for which the results for the IC50 in assay [1] and in assay [2] were 50 nM and 30 nM, respectively.
Turning to `COc1ccc(-c2[nH]nc3c2C(=O)c2c(NC(=O)NNC(=O)c4cc(Cl)ccc4Cl)cccc2-3)cc1`, the IC50 came to 20 nM in assay [1] and 30 nM in assay [2].
Consider `COC(=O)NNC(=O)Nc1cccc2c1C(=O)c1c-2n[nH]c1-c1ccc(OC)cc1`, for which the IC50 in assay [1] was 8 nM; in assay [2], 10 nM; with HCT-116 it was 50 nM.
For `COc1ccc(-c2[nH]nc3c2C(=O)c2c(NC(=O)NNC(=O)c4ccc(O)cc4)cccc2-3)cc1`, the IC50 worked out at 5 nM in assay [1] and 1100 nM in the assay with HCT-116.
`COc1ccc(-c2[nH]nc3c2C(=O)c2c(NC(=O)NNC(=O)c4ccccc4)cccc2-3)cc1`: the IC50 in assay [1] is 7 nM; in assay [2] it was 10 nM; in the assay with HCT-116 it was 30 nM.
The matching figures for `COc1ccc(-c2[nH]nc3c2C(=O)c2c(NC(=O)NNC(=O)c4cccnc4)cccc2-3)cc1`: 9 nM, 10 nM and 190 nM.
The compound `COc1ccc(-c2[nH]nc3c2C(=O)c2c(NC(=O)NNC(=O)c4cccc5ccccc45)cccc2-3)cc1` came in with an IC50 in assay [2] of 50 nM.
Consider `COc1ccc(-c2[nH]nc3c2C(=O)c2c(NC(=O)NNC(=O)C(N)=O)cccc2-3)cc1`, for which the IC50 was 240 nM in assay [1], 90 nM in assay [2] and 1200 nM with HCT-116.
As to `COc1ccc(-c2[nH]nc3c2C(=O)c2c(NC(=O)NNC(=O)c4cc(OC)cc(OC)c4)cccc2-3)cc1`, the IC50 in assay [1] was found to be 20 nM; in assay [2] it was 40 nM.
On to `COc1ccc(-c2[nH]nc3c2C(=O)c2c(NC(=O)NNC(=O)CCc4ccc(O)cc4)cccc2-3)cc1`, for which the results for the IC50 in assay [1] and in assay [2] were 9 nM and 10 nM, respectively.
`COc1ccc(-c2[nH]nc3c2C(=O)c2c(NC(=O)NNC(=O)c4ccc(O)c(N)c4)cccc2-3)cc1`: the IC50 came out at 7 nM in assay [1] and 20 nM in assay [2].
On to `COc1ccc(-c2[nH]nc3c2C(=O)c2c(NC(=O)NNC(=O)c4ccc(O)c(O)c4)cccc2-3)cc1`, for which the results for the IC50 in assay [1] and in assay [2] were 5 nM and 10 nM, respectively.
Turning to `COc1ccc(-c2[nH]nc3c2C(=O)c2c(NC(=O)NNC(=O)c4cc(OC)c(OC)c(OC)c4)cccc2-3)cc1`, the results for the IC50 in assay [1] and in assay [2] were 7 nM and 20 nM, respectively.

Source of the values: ChEMBL document CHEMBL1138012, “Parallel synthesis of acylsemicarbazide libraries: preparation of potent cyclin dependent kinase (cdk) inhibitors” (Bioorg Med Chem Lett, 2004).
